*1 amine or outer side, *2 acyl side, *3 side chain or, on linkers, in order; H or OH if unused. Where a SMILES comes first, the peptide text is derived from it. Bridges are numbered along the chain shown (N, C = ends). Side-chain parts run from the residue outwards. [ ]: non-standard residue; d: D form. The star is where a group is joined. ξ: configuration not given here. X9 = O=C(O)CCCCCCCCCCCCCCCCC(=O)N[C@@H](CCC(=O)NCCOCCOCCOCCOCCOCCOCCOCCOCCOCCOCCOCCCCCC(=O)*)C(=O)O; X16 = CC(C)(S[*:2])[C@H](CC(=O)CCOCCOCC[N+](C)(C)C)C(=O)[*:1]; Me3N+(CH2)2O(CH2)2O(CH2)2CO = C[N+](C)(C)CCOCCOCCC(=O)*; CH2CH2OCH2CH2OCH2CH2NMe3+ = C[N+](C)(C)CCOCCOCC*; Trp(7-Me) = Cc1cccc2c(C[C@H](N)C(=O)O)c[nH]c12; C20 diacid = O=C(O)CCCCCCCCCCCCCCCCCCC(=O)*; C18 diacid = O=C(O)CCCCCCCCCCCCCCCCC(=O)*; γGlu = O=C(O)[C@H](CCC(=O)[*:2])N[*:1]; 2Nal = N[C@@H](Cc1ccc2ccccc2c1)C(=O)O; 3Pal = N[C@@H](Cc1cccnc1)C(=O)O; Lys(Me) = CNCCCC[C@H](N)C(=O)O; NMeK = CN[C@@H](CCCCN)C(=O)O; Pen = CC(C)(S)[C@H](N)C(=O)O; Thp = NC1(C(=O)O)CCOCC1; X1 = C[N+](C)(C)CCCCC*; ξN = NC(=O)CC(N)C(=O)O; AEEA = NCCOCCOCC(=O)O; Sar = CNCC(=O)O
How the values were obtained:
IL-23R = target: T1, IL-23R (Homo sapiens, UniProt Q5VWK5); assay: IL23R Reporter Assay; type: cell-based; conditions: HEK293 cells containing IL-23R, IL-12Rβ1 and STAT-inducible firefly luciferase reporter; 10 ng/mL IL-23 (EC90); 5 h
T1 construct: HEK293 cells containing IL-23R, IL-12Rβ1 and a firefly luciferase reporter gene driven by a STAT-inducible promoter (Promega); host or cells: HEK293
T1 sequence (Q5VWK5 24-629): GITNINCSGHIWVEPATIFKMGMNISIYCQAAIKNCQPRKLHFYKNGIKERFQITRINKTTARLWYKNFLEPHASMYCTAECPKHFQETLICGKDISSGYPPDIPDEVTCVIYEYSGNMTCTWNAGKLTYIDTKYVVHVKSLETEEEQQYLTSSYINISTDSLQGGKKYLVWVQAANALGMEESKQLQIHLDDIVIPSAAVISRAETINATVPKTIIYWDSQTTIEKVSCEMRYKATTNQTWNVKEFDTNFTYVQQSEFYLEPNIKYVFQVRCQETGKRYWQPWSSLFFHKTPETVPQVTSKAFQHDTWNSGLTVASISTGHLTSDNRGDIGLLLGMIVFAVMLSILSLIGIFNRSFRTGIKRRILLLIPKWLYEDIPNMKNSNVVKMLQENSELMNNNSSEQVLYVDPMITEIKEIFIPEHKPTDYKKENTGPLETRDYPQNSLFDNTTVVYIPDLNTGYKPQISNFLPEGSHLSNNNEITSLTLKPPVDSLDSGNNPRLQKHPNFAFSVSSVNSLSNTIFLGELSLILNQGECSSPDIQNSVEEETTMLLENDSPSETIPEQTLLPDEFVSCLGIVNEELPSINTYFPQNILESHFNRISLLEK
Outline: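 IC50 values were fitted with a 4-parameter Hill equation to luciferase signal, scaled between IL-23-only wells (0% inhibition) and 30 μM reference inhibitor (100%). The readout was a STAT-inducible reporter in IL-23R/IL-12Rβ1 HEK293 cells, stimulated with added 10 ng/mL IL-23 (EC90) for 5 h at 37° C and developed with BioGlo.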

[1] = tested on: IL-23-stimulated phosphorylated STAT3 in peripheral blood mononuclear cells (PBMCs); assay: PBMC pSTAT3 Assay; type: cell-based; conditions: PBMCs from healthy donors; 30 min preincubation with peptide; IL-23 5 ng/mL for 30 min; phospho-STAT3 by MSD
Outline: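 Phospho-STAT3 quantified by Meso Scale assay in lysates of PBMCs exposed to IL-23 (5 ng/mL, 30 min, 37 °C) after 30 min peptide pretreatment. Cells were cryopreserved donor PBMCs activated 4 days with anti-CD3 plus IL-1β (100 ng/mL) and starved ~4 h; IC50 reported.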

IC50 (IL-23R) [nM] | SMILES | IC50 [1] [nM]
50 to 500 | CC(=O)N(C)CCCC[C@@H]1NC(=O)[C@H](Cc2c[nH]c3c(C)cccc23)NC(=O)[C@H]([C@@H](C)O)NC(=O)[C@H](CC(=O)N(C)C)NC(=O)[C@@H](CC(=O)CCOCCOCC[N+](C)(C)C)C(C)(C)SSC(C)(C)[C@@H](C(=O)N[C@@H](Cc2ccc(OCCOCCOCC[N+](C)(C)C)cc2)C(=O)N[C@@H](Cc2ccc3ccccc3c2)C(=O)NC2(C(=O)N[C@@H](CCCCN(C)C(C)=O)C(=O)NC(CC(N)=O)C(=O)N[C@@H](Cc3cccnc3)C(=O)N(C)[C@@H](CCCCNC(=O)COCCOCCNC(=O)COCCOCCNC(=O)CC[C@H](NC(=O)CCCCCCCCCCCCCCCCCCC(=O)O)C(=O)O)C(N)=O)CCOCC2)NC1=O (some centres unmarked) [compound 112, cPEG3aCO-Pen(3)-N(N(Me)2)-T-7MeW-K(NMeAc)-Pen(3)-APEG3F-2Nal-THP-K(NMeAc)-N-3Pya-NMeK(PEG2PEG2gEC20OH)-CONH2] (D(NMe2)T[Trp(7-Me)][Lys(Me)](Ac)[Pen]Y(CH2CH2OCH2CH2OCH2CH2NMe3+)[2Nal][Thp][Lys(Me)](Ac)[ξN][3Pal][NMeK]([AEEA-AEEA-γGlu-C20 diacid])-NH2; linker N-5 via X16) | 0.5 to 5
< 50 | CC(=O)N(C)CCCC[C@@H]1NC(=O)[C@H](Cc2c[nH]c3c(C)cccc23)NC(=O)[C@H]([C@@H](C)O)NC(=O)[C@H](CC(=O)N(C)C)NC(=O)[C@@H](CC(=O)CCOCCOCC[N+](C)(C)C)C(C)(C)SSC(C)(C)[C@@H](C(=O)N[C@@H](Cc2ccc(OCCOCCOCC[N+](C)(C)C)cc2)C(=O)N[C@@H](Cc2ccc3ccccc3c2)C(=O)NC2(C(=O)N[C@@H](CCCCN(C)C(C)=O)C(=O)NC(CC(N)=O)C(=O)N[C@@H](Cc3cccnc3)C(=O)N(C)[C@@H](CCCCNC(=O)COCCOCCNC(=O)COCCOCCNC(=O)CC[C@H](NC(=O)CCCCCCCCCCCCCCCCC(=O)O)C(=O)O)C(N)=O)CCOCC2)NC1=O (some centres unmarked) [compound 113, cPEG3aCO-Pen(3)-N(N(Me)2)-T-7MeW-K(NMeAc)-Pen(3)-APEG3F-2Nal-THP-K(NMeAc)-N-3Pya-NMeK(PEG2PEG2gEC18OH)-CONH2] (D(NMe2)T[Trp(7-Me)][Lys(Me)](Ac)[Pen]Y(CH2CH2OCH2CH2OCH2CH2NMe3+)[2Nal][Thp][Lys(Me)](Ac)[ξN][3Pal][NMeK]([AEEA-AEEA-γGlu-C18 diacid])-NH2; linker N-5 via X16) | < 0.5
< 50 | CC(=O)N(C)CCCC[C@@H]1NC(=O)[C@H](Cc2c[nH]c3c(C)cccc23)NC(=O)[C@H]([C@@H](C)O)NC(=O)[C@H](CCCCNC(=O)CCCCCOCCOCCOCCOCCOCCOCCOCCOCCOCCOCCOCCNC(=O)CC[C@H](NC(=O)CCCCCCCCCCCCCCCCC(=O)O)C(=O)O)NC(=O)[C@@H](NC(=O)CCOCCOCC[N+](C)(C)C)C(C)(C)SSC(C)(C)[C@@H](C(=O)N[C@@H](Cc2ccc(OCCCCC[N+](C)(C)C)cc2)C(=O)N[C@@H](Cc2ccc3ccccc3c2)C(=O)NC2(C(=O)N[C@@H](CCCCN(C)C(C)=O)C(=O)N[C@@H](CC(N)=O)C(=O)N[C@@H](Cc3cccnc3)C(=O)N(C)CC(=O)N(C)C)CCOCC2)NC1=O [compound 115, cPEG3aCO-Pen(3)-K(PEG12gEC20OH)-T-7MeW-K(NMeAc)-Pen(3)-TMAPF-2Nal-THP-K(NMeAc)-N-3Pya-Sar-CON(Me)2] ({Me3N+(CH2)2O(CH2)2O(CH2)2CO}-[Pen]K(X9)T[Trp(7-Me)][Lys(Me)](Ac)[Pen]Y(X1)[2Nal][Thp][Lys(Me)](Ac)N[3Pal][Sar]-NMe2; disulfide 1-6) | 0.5 to 5
< 50 | CC(=O)N(C)CCCC[C@@H]1NC(=O)[C@H](Cc2c[nH]c3c(C)cccc23)NC(=O)[C@H]([C@@H](C)O)NC(=O)[C@H](CCCCNC(=O)CCCCCOCCOCCOCCOCCOCCOCCOCCOCCOCCOCCOCCNC(=O)CC[C@H](NC(=O)CCCCCCCCCCCCCCCCC(=O)O)C(=O)O)NC(=O)[C@@H](NC(=O)CCOCCOCC[N+](C)(C)C)C(C)(C)SSC(C)(C)[C@@H](C(=O)N[C@@H](Cc2ccc(OCCCCC[N+](C)(C)C)cc2)C(=O)N[C@@H](Cc2ccc3ccccc3c2)C(=O)NC2(C(=O)N[C@@H](CCCCN(C)C(C)=O)C(=O)N[C@@H](CC(N)=O)C(=O)N[C@@H](Cc3cccnc3)C(=O)N(C)CC(=O)N(C)C)CCOCC2)NC1=O [compound 116, HOC18gEPEG12CO-Pen(3)-N-T-K(Ac)-Pen(3)-AEF-2Nal-THP-E-N-3Pya-Sar-CONH2] ({Me3N+(CH2)2O(CH2)2O(CH2)2CO}-[Pen]K(X9)T[Trp(7-Me)][Lys(Me)](Ac)[Pen]Y(X1)[2Nal][Thp][Lys(Me)](Ac)N[3Pal][Sar]-NMe2; disulfide 1-6) | < 0.5

Reference: patent US20260250320A1, “LIPIDATED PEPTIDE INHIBITORS OF INTERLEUKIN-23 RECEPTOR” (Janssen Pharmaceutica NV, priority 2023, published 2026)
